According to ChEMBL document CHEMBL4811286, “Novel 1,3,4-oxadiazole compounds inhibit the tyrosinase and melanin level: Synthesis, in-vitro, and in-silico studies” (Bioorg Med Chem, 2021):
One block for each molecule: values may come before it. Activity calls are given as the source filed them. No cut-off for these calls is given here.

Key:
[1] = molecular target: T1, Tyrosinase (Agaricus bisporus, UniProt O42713); assay: Inhibition of mushroom tyrosinase using L-DOPA as substrate
T1 sequence (O42713 whole entry): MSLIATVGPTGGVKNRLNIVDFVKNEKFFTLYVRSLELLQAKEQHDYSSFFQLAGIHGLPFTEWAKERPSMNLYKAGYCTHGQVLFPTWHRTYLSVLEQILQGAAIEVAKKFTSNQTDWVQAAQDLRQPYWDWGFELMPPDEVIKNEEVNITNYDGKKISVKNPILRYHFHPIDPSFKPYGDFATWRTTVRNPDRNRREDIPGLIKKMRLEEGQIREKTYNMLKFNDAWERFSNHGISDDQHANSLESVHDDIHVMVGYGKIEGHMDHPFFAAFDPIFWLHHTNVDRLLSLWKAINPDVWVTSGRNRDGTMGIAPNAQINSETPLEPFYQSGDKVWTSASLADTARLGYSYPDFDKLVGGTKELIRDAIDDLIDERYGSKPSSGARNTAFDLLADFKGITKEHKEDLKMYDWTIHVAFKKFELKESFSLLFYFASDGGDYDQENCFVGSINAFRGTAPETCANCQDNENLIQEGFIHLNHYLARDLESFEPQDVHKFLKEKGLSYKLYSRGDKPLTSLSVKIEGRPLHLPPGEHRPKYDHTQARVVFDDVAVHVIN

[2] = molecular target: T1, Tyrosinase; assay: Noncompetitive inhibition of mushroom tyrosinase assessed as dissociation constant using L-DOPA as substrate by Lineweaver-Burk plot analysis
[3] = system: B16-F10; assay: Anti-melanogenic activity in mouse B16-F10 cells assessed as reduction in alpha-MSH-induced tyrosinase expression at 10 uM incubated for 24 hrs by Western blot analysis; type: functional, cell-based
[4] = system: B16-F10; assay: Anti-melanogenic activity in mouse B16-F10 cells assessed as reduction in alpha-MSH-induced tyrosinase expression at 20 to 30 uM incubated for 24 hrs by Western blot analysis; type: functional, cell-based; conditions: dose 20-30 µM
[5] = system: B16-F10; assay: Anti-melanogenic activity in mouse B16-F10 cells assessed as reduction in alpha-MSH-induced tyrosinase expression at 50 uM incubated for 24 hrs by Western blot analysis; type: functional, cell-based
[6] = system: B16-F10; assay: Anti-melanogenic activity against alpha-MSH-induced mouse B16-F10 cells assessed as reduction in melanin content at 10 uM incubated for 24 hrs […] relative to control; type: functional
[7] = system: B16-F10; assay: Anti-melanogenic activity against alpha-MSH-induced mouse B16-F10 cells assessed as reduction in melanin content at 20 uM incubated for 24 hrs […] relative to control; type: functional
[8] = system: B16-F10; assay: Anti-melanogenic activity against alpha-MSH-induced mouse B16-F10 cells assessed as reduction in melanin content at 30 uM incubated for 24 hrs […] relative to control; type: functional
[9] = system: B16-F10; assay: Anti-melanogenic activity against alpha-MSH-induced mouse B16-F10 cells assessed as reduction in melanin content at 50 uM incubated for 24 hrs […] relative to control; type: functional
[10] = Cytotoxicity against mouse B16-F10 cells assessed as cell viability at 50 ug/ml measured after 24 hrs by MTT assay relative to control; type: cell-based; conditions: at 50 µg/mL, read-out: Activity
[11] = system: B16-F10; assay: Cytotoxicity against mouse B16-F10 cells assessed as reduction in cell viability upto 10 ug/ml measured after 24 hrs by MTT assay; type: cell-based; conditions: b16-f10, 24 h, dose <=10 µg/ml
[12] = system: B16-F10; assay: Cytotoxicity against mouse B16-F10 cells assessed as reduction in cell viability at 10 to 50 ug/ml measured after 24 hrs by MTT assay; type: cell-based; conditions: b16-f10, 24 h, dose 10-50 µg/ml
[13] = compound: COc1ccccc1-c1nnc(SCC(=O)Nc2ccccc2)o1; assay: Noncompetitive inhibition of mushroom tyrosinase assessed as Vmax at 0.0017 uM using L-DOPA as substrate by Lineweaver-Burk plot analysis; conditions: Agaricus bisporus
[14] = compound: COc1ccccc1-c1nnc(SCC(=O)Nc2ccccc2)o1; assay: Noncompetitive inhibition of mushroom tyrosinase assessed as Vmax at 0.0033 uM using L-DOPA as substrate by Lineweaver-Burk plot analysis; conditions: Agaricus bisporus
[15] = compound: COc1ccccc1-c1nnc(SCC(=O)Nc2ccccc2)o1; assay: Noncompetitive inhibition of mushroom tyrosinase assessed as Vmax at 0.0066 uM using L-DOPA as substrate by Lineweaver-Burk plot analysis; conditions: Agaricus bisporus
[16] = compound: COc1ccccc1-c1nnc(SCC(=O)Nc2ccccc2)o1; assay: Noncompetitive inhibition of mushroom tyrosinase assessed as Km at 0.0017 uM using L-DOPA as substrate by Lineweaver-Burk plot analysis; conditions: Agaricus bisporus
[17] = compound: COc1ccccc1-c1nnc(SCC(=O)Nc2ccccc2)o1; assay: Noncompetitive inhibition of mushroom tyrosinase assessed as Km at 0.0033 uM using L-DOPA as substrate by Lineweaver-Burk plot analysis; conditions: Agaricus bisporus
[18] = compound: COc1ccccc1-c1nnc(SCC(=O)Nc2ccccc2)o1; assay: Noncompetitive inhibition of mushroom tyrosinase assessed as Km at 0.0066 uM using L-DOPA as substrate by Lineweaver-Burk plot analysis; conditions: Agaricus bisporus

- IC50 [1]: 3 nM
- Ki [2]: 3.1 nM
Molecule: COc1ccccc1-c1nnc(SCC(=O)Nc2ccccc2)o1
- Activity [3]: Active
- Activity [4]: Active
- Activity [5]: Active
- inhibition at 10 µM [6]: 16%
- inhibition at 20 µM [7]: 62%
- inhibition at 30 µM [8]: 77%
- inhibition at 50 µM [9]: 78%
- viability at 24 h, 50 ug/ml [10]: 80%

- IC50 [1]: 19 nM
Molecule: COc1cccc(-c2nnc(SCC(=O)Nc3ccccc3)o2)c1
- Activity [11]: Non-Toxic
- Activity [12]: Toxic

- IC50 [1]: 23 nM
Molecule: COc1ccccc1-c1nnc(SCC(=O)Nc2ccc(I)cc2)o1
- viability at 24 h, 50 ug/ml [10]: 80%

- IC50 [1]: 88 nM
Molecule: COc1cccc(-c2nnc(SCC(=O)Nc3ccc(I)cc3)o2)c1

- IC50 [1]: 39 nM
Molecule: O=C(CSc1nnc(-c2ccccc2)o1)Nc1ccc(Br)cc1

- IC50 [1]: 231 nM
Molecule: O=C(CSc1nnc(-c2ccccc2)o1)Nc1ccccc1

- IC50 [1]: 27 nM
Molecule: COc1cccc(-c2nnc(SCC(=O)Nc3ccc(F)cc3)o2)c1
- Activity [11]: Non-Toxic
- Activity [12]: Toxic

- IC50 [1]: 46 nM
Molecule: COc1ccccc1-c1nnc(SCC(=O)Nc2ccc(Br)cc2)o1

- IC50 [1]: 145 nM
Molecule: COc1cccc(-c2nnc(SCC(=O)Nc3ccc(Br)cc3)o2)c1

- IC50 [1]: 85 nM
Molecule: O=C(CSc1nnc(-c2ccccc2)o1)Nc1ccc(I)cc1

- IC50 [1]: 18 nM
Molecule: COc1ccccc1-c1nnc(SCC(=O)Nc2ccc(F)cc2)o1
- viability at 24 h, 50 ug/ml [10]: 80%

- IC50 [1]: 396 nM
Molecule: O=C(CSc1nnc(-c2ccccc2)o1)Nc1ccc(F)cc1

B1: Tyrosinase (Agaricus bisporus), O42713 (protein)
chain: T1 sequence (O42713 whole entry)
- Vmax [13]: 4.97 deltaA/s
- Vmax [14]: 3.64 deltaA/s
- Vmax [15]: 2.27 deltaA/s
- Km [16]: 250 µM
- Km [17]: 250 µM
- Km [18]: 250 µM
